Measurements: US8173698B2, “Environmental sensitive fluorogenic compounds and their application for singlet oxygen and protein detection” (priority 2003, dated 2012)

Columns and labels:
[1] = molecular target: bovine serum albumin (BSA) (Bos taurus, UniProt P02769); settings: excitation 488 nm
Procedure: A solution of Compound 5 (1 μM) was prepared in phosphate-buffered saline (PBS) (50 mM phosphate buffer, pH 7.4, 150 mM NaCl). A 2 mL portion of this solution was transferred to a 10 mm×10 mm quartz cuvette. The fluorescence emission spectrum of the solution was recorded on a Hitachi F-4500 spectrofluorometer using excitation at 488 nm. 1 μL of a 4.5 mM solution of bovine serum albumin (30% (w/v) BSA (Sigma Chemical Co., St. Louis, Mo., catalog number A-7284)) was then added to the 2 mL of aqueous dye solution. The emission scan measurement was then repeated. Further measurements were made as the amount of added BSA was increased up to 4.5 μM.

[2] = Dependence of fluorescence emission spectra on solvent; format: physicochemical; settings: 1 μM; MeOH and aqueous buffer (50 mM Tris pH 7.5) vs DMSO; excitation 488 nm
Procedure: Solutions of Compound 5 (1 μM) were prepared in dimethylsulfoxide (DMSO), methanol (MeOH) and aqueous buffer (50 mM Tris pH 7.5). 2 mL portions of these solutions were transferred to 10 mm×10 mm quartz cuvettes and fluorescence emission spectra were recorded on a Hitachi F-4500 spectrofluorometer using identical instrument detection sensitivity settings. Excitation was at 488 nm in all cases. For the DMSO and MeOH solutions, the spectra were re-scanned after addition of a small amount of 0.1 M NaOH to the 2 mL solution sample. Results are plotted in FIG. 3A and FIG. 3B. FIG. 3B represents an approximately 10-fold enlargement on the y-axis of FIG. 3A.

bovine serum albumin (BSA), sequence (P02769 25-607): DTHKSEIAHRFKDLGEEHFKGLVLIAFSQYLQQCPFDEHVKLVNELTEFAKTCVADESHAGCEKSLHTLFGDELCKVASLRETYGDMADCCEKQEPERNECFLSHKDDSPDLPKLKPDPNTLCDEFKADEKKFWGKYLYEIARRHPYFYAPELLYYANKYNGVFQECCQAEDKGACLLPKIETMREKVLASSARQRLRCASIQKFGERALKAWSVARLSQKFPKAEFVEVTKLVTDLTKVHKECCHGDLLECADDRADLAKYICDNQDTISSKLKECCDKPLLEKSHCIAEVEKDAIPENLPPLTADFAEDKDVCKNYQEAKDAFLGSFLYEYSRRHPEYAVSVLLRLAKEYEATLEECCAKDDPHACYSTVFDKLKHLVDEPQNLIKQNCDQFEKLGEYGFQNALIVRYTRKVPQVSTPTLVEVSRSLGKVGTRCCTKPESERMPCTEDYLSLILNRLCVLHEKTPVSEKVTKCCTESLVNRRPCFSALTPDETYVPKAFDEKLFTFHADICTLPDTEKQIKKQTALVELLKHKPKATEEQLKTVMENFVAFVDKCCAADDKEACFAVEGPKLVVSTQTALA

## CC(=O)O.Cc1c2ccccc2c(-c2cc3c(-c4ccccc4C(=O)O)c4cc(Cl)c(O)cc4oc-3cc2=O)c2ccccc12 [Compound 5]
[1]; 1 μM dye in PBS pH 7.4, BSA 0-5 μM
  change of fluorescence upon binding to BSA: fluorescence enhancement
[1]; in PBS with BSA
  fluorescence emission peak: 540 nm
[2]
  fluorescence of the dye in MeOH and aqueous buffer relative to that in DMSO: extremely weak fluorescence
